Measurements from PubChem BioAssay (NCI).
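96-well plates; 48 h exposure; 5 concentrations. Endpoints by linear interpolation between flanking doses. Not reached: highest tested concentration assigned. GI50 = concentration required for 50% inhibition of growth. TGI denotes the concentration required for complete inhibition of growth.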

Experiments:
Experiment in all cases: NCI tumour cell line growth inhibition, 48 h
786-0 renal = system: 786-0 renal
A549 NSCLC = system: A549 NSCLC
HCT-116 colon = system: HCT-116 colon
HOP-92 NSCLC = system: HOP-92 NSCLC
IGROV1 ovarian = system: IGROV1 ovarian
NCI-H460 lung = system: NCI-H460 lung
NCI-H522 lung = system: NCI-H522 lung
OVCAR-4 ovarian = system: OVCAR-4 ovarian
SK-OV-3 ovarian = system: SK-OV-3 ovarian
UO-31 renal = system: UO-31 renal

Row | Structure (SMILES) | GI50 (786-0 renal) [µM] | TGI (786-0 renal) [µM] | GI50 (A549 NSCLC) [µM] | TGI (A549 NSCLC) [µM] | GI50 (HCT-116 colon) [µM] | TGI (HCT-116 colon) [µM] | GI50 (HOP-92 NSCLC) [µM] | TGI (HOP-92 NSCLC) [µM] | GI50 (IGROV1 ovarian) [µM] | TGI (IGROV1 ovarian) [µM] | GI50 (NCI-H460 lung) [µM] | TGI (NCI-H460 lung) [µM] | GI50 (NCI-H522 lung) [µM] | TGI (NCI-H522 lung) [µM] | GI50 (OVCAR-4 ovarian) [µM] | TGI (OVCAR-4 ovarian) [µM] | GI50 (SK-OV-3 ovarian) [µM] | TGI (SK-OV-3 ovarian) [µM] | GI50 (UO-31 renal) [µM] | TGI (UO-31 renal) [µM]
1 | COc1ccc2nc3cccc([N+](=O)[O-])c3c(NCCNCCN(C)C)c2c1 | 0.0429 | 0.164 | 0.0712 | 0.518 | 0.25 | 12 | 0.0588 | 0.204 | 0.0195 | 0.136 | 0.0253 | 0.0967 | 0.0102 | 0.0184 | 0.0199 | 0.0509 | 0.279 | 1.06 | 0.119 | 0.377
2 | CC(C)(C)c1nc(-c2cccc(NS(=O)(=O)c3c(F)cccc3F)c2F)c(-c2ccnc(N)n2)s1 | 48.9 | > 100 | 26.1 | > 100 | 20.4 | > 100 | 35.5 | > 100 | 56.1 | > 100 | 30.4 | > 100 | 19 | 54.7 | 50.5 | > 100 | – | – | 0.46 | > 100
3 | O=C1C=C(Nc2ccc(S(=O)(=O)Nc3ncccn3)cc2)c2ccccc2C1=O | – | 45.6 | – | 57.9 | – | 35.9 | – | 94 | – | 58 | – | 42.7 | – | 32 | – | 38.8 | – | 90.7 | – | 57.5
4 | O=C1Nc2ccccc2/C1=C/c1cn(CC(O)Cn2cc(/C=C3\C(=O)Nc4ccccc43)c3ccccc32)c2ccccc12 (configuration not stated) | 1.67 | 3.21 | 1.51 | 3.21 | 1.66 | 4.13 | 1.8 | 4.15 | 0.477 | 1.9 | 0.488 | 1.88 | – | – | – | – | 1.65 | 3.68 | 1.29 | 2.94
5 | CC/C(Cc1ccccc1)=C(/c1ccc(O)cc1)c1ccc(OCCN2CCCC2)cc1 | 1.72 | 3.22 | 2.05 | 3.82 | 1.83 | 3.3 | 1.61 | 3.26 | 1.95 | 4.5 | 1.72 | 3.48 | 1.89 | 3.67 | 2.08 | 5.18 | 1.74 | 3.32 | 1.43 | 2.95
6 | O=c1[nH]c(=O)n(C2CC(O)C(CO)O2)cc1COCC(F)(F)F (configuration not stated) | – | > 100 | – | > 100 | – | – | – | > 100 | – | > 100 | – | > 100 | – | > 100 | – | > 100 | – | > 100 | – | > 100
7 | COc1cc(Nc2ncnc(Nc3ccc4c(n3)NC(=O)C(C)(C)O4)n2)cc(OC)c1OC | 0.492 | > 22.6 | 1.25 | > 100 | 3.95 | > 100 | 0.243 | 1.71 | 0.247 | 1.72 | 3.2 | > 100 | 0.625 | 11.2 | – | > 100 | 0.929 | – | 0.329 | > 100
8 | CCC[CH2][Sn]([CH2]CCC)([CH2]CCC)[O]C(=O)C(OC)c1ccccc1 (configuration not stated) | 0.142 | 0.288 | 0.117 | 0.265 | 0.0508 | 0.182 | 0.0274 | 0.175 | 0.13 | 0.295 | 0.0835 | 0.217 | 0.0885 | 0.212 | 0.0604 | 0.189 | 0.122 | 0.246 | 0.113 | 0.234
9 | Cc1c(C)c2c(c(C)c1OCC(=O)O)CC[C@@](C)(CCC[C@@H](C)CCC[C@@H](C)CCCC(C)C)O2 | 93.3 | 185 | 24.4 | 107 | 33.2 | 108 | 58.6 | 137 | 91.7 | 187 | 55.3 | 168 | 64.1 | 154 | 59.6 | 136 | 76.8 | 148 | 84.1 | 152
10 | CCC(=O)C(C(=O)CC)c1c(OC(=O)c2ccccc2)ccc(O)c1C(=O)OC | – | > 100 | – | > 100 | – | > 100 | – | > 100 | – | > 100 | – | > 100 | – | > 100 | – | > 100 | – | > 100 | – | > 100
11 | C=C(CO)CC(/C=C(\C)CC/C=C(\C)CCl)OC(C)=O (configuration not stated) | – | > 100 | – | > 100 | – | > 100 | – | > 100 | – | > 100 | – | > 100 | – | > 100 | – | > 100 | – | > 100 | – | > 100
12 | O/N=C\C(=Nc1ccc(Cc2ccc(N=C(/C=N\O)NO)cc2)cc1)NO | – | > 100 | – | > 100 | – | > 100 | – | > 100 | – | > 100 | – | > 100 | – | > 100 | – | > 100 | – | > 100 | – | 65
13 | CC1=C(C#N)C(/C=C(\Cl)c2ccc(F)cc2)C(C#N)=C(C)N1 | > 100 | > 100 | > 100 | > 100 | > 100 | > 100 | – | – | > 100 | > 100 | > 100 | > 100 | > 100 | > 100 | > 100 | > 100 | > 100 | > 100 | > 100 | > 100
14 | C/C(O)=C(\N=O)C(=O)NCc1ccccc1 | – | > 100 | – | > 100 | – | > 100 | – | > 100 | – | > 100 | – | > 100 | – | > 100 | – | – | – | > 100 | – | > 100
15 | CCOC(=O)C1=C(C(=O)OCC)C2(c3ccccc3)N(O1)c1ccccc1C2(C)C (configuration not stated) | – | > 100 | – | > 100 | – | > 100 | – | – | – | > 100 | – | > 100 | – | 63.8 | – | 71.8 | – | 95.2 | – | 67.1
